According to the supplement of paper PMC10307832:

How the values were obtained:
Experiment in all cases: relative viability (nuclei count vs DMSO), 5 days (fraction); higher = more cells survive
EMC-BAC-2 = test system: EMC-BAC-2
How it was run: (§1)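 Medians of duplicate plates are given as relative viability. That measure is the nuclei count in treated wells divided by the count in vehicle wells. Counts were taken on 4× images of lung cancer cell lines in 1536-well plates, 5 days after pin-tool dosing the day after seeding with one drug alone or a fixed anchor-drug dose plus five library-drug doses (not always all listed) in √10 steps.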

EPLC-272H = test system: EPLC-272H
How it was run: as §1

H3255 = test system: H3255
How it was run: as §1

HOP-62 = test system: HOP-62
How it was run: as §1

LCLC-97TM1 = test system: LCLC-97TM1
How it was run: as §1

LXF-289 = test system: LXF-289
How it was run: as §1

NCI-H1563 = test system: NCI-H1563
How it was run: as §1

NCI-H1650 = test system: NCI-H1650
How it was run: as §1

NCI-H1915 = test system: NCI-H1915
How it was run: as §1

NCI-H1993 = test system: NCI-H1993
How it was run: as §1

NCI-H2009 = test system: NCI-H2009
How it was run: as §1

NCI-H2023 = test system: NCI-H2023
How it was run: as §1

NCI-H2085 = test system: NCI-H2085
How it was run: as §1

NCI-H2126 = test system: NCI-H2126
How it was run: as §1

NCI-H2347 = test system: NCI-H2347
How it was run: as §1

NCI-H322M = test system: NCI-H322M
How it was run: as §1

NCI-H647 = test system: NCI-H647
How it was run: as §1

NCI-H661 = test system: NCI-H661
How it was run: as §1

NCI-H727 = test system: NCI-H727
How it was run: as §1

PC-14 = test system: PC-14
How it was run: as §1

SK-LU-1 = test system: SK-LU-1
How it was run: as §1

SW 1573 = test system: SW 1573
How it was run: as §1

In the case of `NC(=O)Nc1cc(-c2cccc(F)c2)sc1C(=O)N[C@H]1CCCNC1` [AZD7762] + CS(=O)(=O)CCNCc1ccc(-c2ccc3ncnc(Nc4ccc(OCc5cccc(F)c5)c(Cl)c4)c3c2)o1 [Lapatinib] (partner 2 µM), the relative viability (EMC-BAC-2; first compound 0.01 µM) is reported as 0.908, the relative viability (EMC-BAC-2; first compound 0.03162 µM) is reported as 0.929 and the relative viability (EMC-BAC-2; first compound 0.1 µM) is reported as 0.919. It also gave a relative viability (EMC-BAC-2; first compound 0.3162 µM) of 0.91, a relative viability (EMC-BAC-2; first compound 1 µM) of 0.894 and a relative viability (EPLC-272H; first compound 0.01 µM) of 0.875. The relative viability (EPLC-272H; first compound 0.03162 µM) was 1.19, the relative viability (EPLC-272H; first compound 0.1 µM) was 0.846 and the relative viability (EPLC-272H; first compound 0.3162 µM) was 0.967. For the same molecule, the relative viability (EPLC-272H; first compound 1 µM) was 0.912, the relative viability (H3255; first compound 0.01 µM) was 0.316 and the relative viability (H3255; first compound 0.03162 µM) was 0.256. For the same molecule, the relative viability (H3255; first compound 0.1 µM) was 0.244, the relative viability (H3255; first compound 0.3162 µM) was 0.264 and the relative viability (H3255; first compound 1 µM) was 0.244. For the same molecule, the relative viability (HOP-62; first compound 0.01 µM) was 0.993, the relative viability (HOP-62; first compound 0.03162 µM) was 1.06 and the relative viability (HOP-62; first compound 0.1 µM) was 1.27. The relative viability (HOP-62; first compound 0.3162 µM) was 0.989, the relative viability (HOP-62; first compound 1 µM) was 0.565 and the relative viability (LCLC-97TM1; first compound 0.01 µM) was 0.834. It also gave a relative viability (LCLC-97TM1; first compound 0.03162 µM) of 1.13, a relative viability (LCLC-97TM1; first compound 0.1 µM) of 0.821 and a relative viability (LCLC-97TM1; first compound 0.3162 µM) of 0.555. It also gave a relative viability (LCLC-97TM1; first compound 1 µM) of 0.609, a relative viability (LXF-289; first compound 0.01 µM) of 0.906 and a relative viability (LXF-289; first compound 0.03162 µM) of 0.909. The relative viability (LXF-289; first compound 0.1 µM) was 0.973, the relative viability (LXF-289; first compound 0.3162 µM) was 0.912 and the relative viability (LXF-289; first compound 1 µM) was 0.983. It also gave a relative viability (NCI-H1563; first compound 0.01 µM) of 0.868, a relative viability (NCI-H1563; first compound 0.03162 µM) of 1.04 and a relative viability (NCI-H1563; first compound 0.1 µM) of 1.04. The relative viability (NCI-H1563; first compound 0.3162 µM) was 0.982, the relative viability (NCI-H1563; first compound 1 µM) was 0.904 and the relative viability (NCI-H1650; first compound 0.01 µM) was 0.747. It also gave a relative viability (NCI-H1650; first compound 0.03162 µM) of 0.852, a relative viability (NCI-H1650; first compound 0.1 µM) of 0.896 and a relative viability (NCI-H1650; first compound 0.3162 µM) of 0.434. The relative viability (NCI-H1650; first compound 1 µM) was 0.167, the relative viability (NCI-H1915; first compound 0.01 µM) was 1 and the relative viability (NCI-H1915; first compound 0.03162 µM) was 1. The relative viability (NCI-H1915; first compound 0.1 µM) was 0.943, the relative viability (NCI-H1915; first compound 0.3162 µM) was 0.909 and the relative viability (NCI-H1915; first compound 1 µM) was 0.933. It also gave a relative viability (NCI-H1993; first compound 0.01 µM) of 0.791, a relative viability (NCI-H1993; first compound 0.03162 µM) of 0.789 and a relative viability (NCI-H1993; first compound 0.1 µM) of 0.664. The relative viability (NCI-H1993; first compound 0.3162 µM) was 0.89, the relative viability (NCI-H1993; first compound 1 µM) was 0.793 and the relative viability (NCI-H2009; first compound 0.01 µM) was 1.25. It also gave a relative viability (NCI-H2009; first compound 0.03162 µM) of 1.04, a relative viability (NCI-H2009; first compound 0.1 µM) of 1 and a relative viability (NCI-H2009; first compound 0.3162 µM) of 0.896. For the same molecule, the relative viability (NCI-H2009; first compound 1 µM) was 0.518, the relative viability (NCI-H2023; first compound 0.01 µM) was 0.601 and the relative viability (NCI-H2023; first compound 0.03162 µM) was 0.758. It also gave a relative viability (NCI-H2023; first compound 0.1 µM) of 0.366, a relative viability (NCI-H2023; first compound 0.3162 µM) of 0.198 and a relative viability (NCI-H2023; first compound 1 µM) of 0.102. The relative viability (NCI-H2085; first compound 0.01 µM) was 0.804, the relative viability (NCI-H2085; first compound 0.03162 µM) was 0.878 and the relative viability (NCI-H2085; first compound 0.1 µM) was 0.873. The relative viability (NCI-H2085; first compound 0.3162 µM) was 0.78, the relative viability (NCI-H2085; first compound 1 µM) was 0.6 and the relative viability (NCI-H2126; first compound 0.01 µM) was 0.774. It also gave a relative viability (NCI-H2126; first compound 0.03162 µM) of 0.82, a relative viability (NCI-H2126; first compound 0.1 µM) of 0.834 and a relative viability (NCI-H2126; first compound 0.3162 µM) of 0.803. It also gave a relative viability (NCI-H2126; first compound 1 µM) of 0.821, a relative viability (NCI-H2347; first compound 0.01 µM) of 1.11 and a relative viability (NCI-H2347; first compound 0.03162 µM) of 0.986. It also gave a relative viability (NCI-H2347; first compound 0.1 µM) of 1.07, a relative viability (NCI-H2347; first compound 0.3162 µM) of 0.934 and a relative viability (NCI-H2347; first compound 1 µM) of 1.17. For the same molecule, the relative viability (NCI-H322M; first compound 0.01 µM) was 0.627, the relative viability (NCI-H322M; first compound 0.03162 µM) was 0.675 and the relative viability (NCI-H322M; first compound 0.1 µM) was 0.532. For the same molecule, the relative viability (NCI-H322M; first compound 0.3162 µM) was 0.535, the relative viability (NCI-H322M; first compound 1 µM) was 0.456 and the relative viability (NCI-H647; first compound 0.01 µM) was 1.14. The relative viability (NCI-H647; first compound 0.03162 µM) was 1.12, the relative viability (NCI-H647; first compound 0.1 µM) was 0.963 and the relative viability (NCI-H647; first compound 0.3162 µM) was 0.519. It also gave a relative viability (NCI-H647; first compound 1 µM) of 0.0944, a relative viability (NCI-H661; first compound 0.01 µM) of 0.6 and a relative viability (NCI-H661; first compound 0.03162 µM) of 0.546. The relative viability (NCI-H661; first compound 0.1 µM) was 0.512, the relative viability (NCI-H661; first compound 0.3162 µM) was 0.405 and the relative viability (NCI-H661; first compound 1 µM) was 0.28. The relative viability (NCI-H727; first compound 0.01 µM) was 0.891, the relative viability (NCI-H727; first compound 0.03162 µM) was 0.985 and the relative viability (NCI-H727; first compound 0.1 µM) was 0.578. For the same molecule, the relative viability (NCI-H727; first compound 0.3162 µM) was 0.36, the relative viability (NCI-H727; first compound 1 µM) was 0.271 and the relative viability (PC-14; first compound 0.01 µM) was 0.345. It also gave a relative viability (PC-14; first compound 0.03162 µM) of 0.305, a relative viability (PC-14; first compound 0.1 µM) of 0.348 and a relative viability (PC-14; first compound 0.3162 µM) of 0.256. It also gave a relative viability (PC-14; first compound 1 µM) of 0.299, a relative viability (SK-LU-1; first compound 0.01 µM) of 0.943 and a relative viability (SK-LU-1; first compound 0.03162 µM) of 0.714. For the same molecule, the relative viability (SK-LU-1; first compound 0.1 µM) was 0.456, the relative viability (SK-LU-1; first compound 0.3162 µM) was 0.276 and the relative viability (SK-LU-1; first compound 1 µM) was 0.217. The relative viability (SW 1573; first compound 0.01 µM) was 1.29, the relative viability (SW 1573; first compound 0.03162 µM) was 1.23 and the relative viability (SW 1573; first compound 0.1 µM) was 1.16. It also gave a relative viability (SW 1573; first compound 0.3162 µM) of 1.24 and a relative viability (SW 1573; first compound 1 µM) of 1.12.
